Test results reported in patent US8030303B2, “Salt of morpholine compound” (Mitsubishi Tanabe Pharma Corporation, priority 2006, dated 2011).

Assays:
[1] = Vapor sorption measurement (index of hygroscopicity), DVS-1 apparatus; type: physicochemical; details: relative humidity 70%, change calculated based on weight at relative humidity 0%, sample about 7 mg
Experimental: A vapor sorption measurement to provide an index of hygroscopicity was performed using a DVS-1 vapor sorption apparatus (manufactured by SMS) under the following conditions. A sample of about 7 mg was used and the relative humidity was increased by 10% within the range of from 0% to 90%, and finally to 95%. The weight change was recorded at each predetermined relative humidity, and the amount of change (%) was calculated based on the weight at relative humidity 0%. As the samples, compound 1-2 (hereinafter to be referred to as a free form) obtained according to the method described in WO 2006/028284, Example 2, compound 1-3 (hereinafter to be referred to as hydrobromide Form I crystal) obtained according to the method described in Example 1 and compound 2 (hereinafter to be referred to as hydrobromide Form II crystal) obtained according to the method described in Example 2 were used.

CCR3 = target: T1, CCR3 (Homo sapiens, UniProt P51677); details: known from WO2006/028284, Table 1 of Experimental Example 1; cited from earlier work
T1 sequence (P51677 1-355): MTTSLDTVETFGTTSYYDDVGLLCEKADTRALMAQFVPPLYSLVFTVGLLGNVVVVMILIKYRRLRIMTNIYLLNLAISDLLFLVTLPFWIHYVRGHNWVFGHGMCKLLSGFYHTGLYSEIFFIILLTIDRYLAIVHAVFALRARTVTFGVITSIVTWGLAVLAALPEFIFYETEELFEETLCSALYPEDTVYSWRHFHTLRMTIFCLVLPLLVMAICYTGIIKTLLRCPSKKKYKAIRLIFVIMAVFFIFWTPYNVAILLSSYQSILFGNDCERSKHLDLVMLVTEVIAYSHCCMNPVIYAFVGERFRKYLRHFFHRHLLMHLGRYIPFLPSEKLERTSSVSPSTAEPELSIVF

Br.O=C(O)Cc1csc(SCC(=O)NC[C@H]2CN(Cc3ccc(Cl)c(Cl)c3)CCO2)n1 [free form, (2S)-[4-(carboxymethyl)thiazol-2-ylthio]-N-{[4-(3,4-dichlorobenzyl)morpholin-2-yl]methyl}acetamide]
weight change (gain) due to vapor sorption [1]: 3.3%
CCR3 antagonism / inhibition of CCR3-ligand binding (CCR3): inhibit the bond between CCR3 and a ligand thereof, and act as an antagonist

Br.O=C(O)Cc1csc(SCC(=O)NC[C@H]2CN(Cc3ccc(Cl)c(Cl)c3)CCO2)n1 [hydrobromide Form I crystal, (2S)-[4-(carboxymethyl)thiazol-2-ylthio]-N-{[4-(3,4-dichlorobenzyl)morpholin-2-yl]methyl}acetamide hydrobromide]
weight change (gain) due to vapor sorption ([1]; hydrobromide): 0.1%

Br.O=C(O)Cc1csc(SCC(=O)NC[C@H]2CN(Cc3ccc(Cl)c(Cl)c3)CCO2)n1 [hydrobromide Form II crystal, (2S)-[4-(carboxymethyl)thiazol-2-ylthio]-N-{[4-(3,4-dichlorobenzyl)morpholin-2-yl]methyl}acetamide hydrobromide]
weight change (gain) due to vapor sorption ([1]; hydrobromide): 1.4%
